Results from US20230218666A1, “ANTIMICROBIAL COMBINATIONS” (MARVELBIOTICS LIMITED, priority 2020, published 2023).
Several values for one entry are separate records, joined by “and”; a condition that tells them apart may be missing. Identical values can stand only once.

Assays:
Lactobacillus plantarum [1] = test: Phase 2a: survival of Lactobacillus plantarum after 24 hours contact at stock concentrations
Description: Twenty-four-hour cultures of L. plantarum were harvested from MRSA and used to prepare a 1×10^8±5×10^7 CFUmL^−1 suspension in MRSB. The starting inoculum was confirmed by serial dilution and plating out the resultant suspensions. […] A 50 μL aliquot of each test agent was added to the wells of a 96-well plate. A 50 μL aliquot of L. plantarum inoculum was then added to the test agent and pipette mixed. The 96-well plates were incubated for 24 hours at 37° C.±2° C. and 5% CO2. Following incubation, 100 μL of DE-N was added to each well and pipette mixed. A 10 μL aliquot of each neutralised suspension was taken from each well and spot-plated onto MRSA. The plates were incubated for 24 hours at 37° C.±2° C. and 5% CO2. Following incubation, the presence or absence of growth on the plates was recorded. Testing was performed in triplicate.

Lactobacillus plantarum [2] = test: Phase 2b: survival of Lactobacillus plantarum after 24 hours contact at a range of concentrations; settings: for Minimum concentration at which growth was observed (%): single agent, n = 3; for Growth observed after recovering viable Lactobacillus plantarum: 24 hours, replicates 1.1-3.2
Description: Twenty-four-hour cultures of L. plantarum were harvested from MRSA and used to prepare a 1×10^8±5×10^7 CFUmL^−1 suspension in MRSB. The starting inoculum was confirmed by serial dilution and plating out the resultant suspensions. […] Each test agent was diluted 1:2 a total of eight times. A 50 μL aliquot of each test agent dilution was added to the wells of a 96-well plate. A 50 μL aliquot of L. plantarum inoculum was added to the test agent and pipette mixed. The 96-well plates were incubated for 24 hours at 37° C.±2° C. and 5% CO2. Following incubation, 100 μL of DE-N was added to each well and pipette mixed. A 10 μL aliquot of each neutralised suspension was taken from each well and spot-plated onto MRSA. The plates were incubated for 24 hours at 37° C.±2° C. and 5% CO2. Following incubation, the presence or absence of growth on the plates was recorded. Testing was performed in triplicate.

Lactobacillus plantarum [3] = test: Phase 2c: survival of Lactobacillus plantarum after 30 minutes, 4 hours and 24 hours contact; format: cell-based; settings: for Minimum concentration at which growth was observed (%): single agent, n = 3; for Growth observed after recovering viable Lactobacillus plantarum: replicates 1.1-3.2
Description: Three concentrations of each test agent were prepared following the results of Phase 2b. […] Testing was performed in triplicate.

Copper gluconate
Growth (Lactobacillus plantarum [1]; stock concentration 8.167 %, n = 3): No
Growth (Lactobacillus plantarum [1]; stock concentration 8.167 %, n = 3, listed as copper gluconate): No growth of L. plantarum was observed
Minimum concentration at which growth was observed (%) (Lactobacillus plantarum [2]; 24 hours contact time): 0.255%
Growth observed after recovering viable Lactobacillus plantarum (Lactobacillus plantarum [2]; concentration 0.064 %): +
Growth observed after recovering viable Lactobacillus plantarum (Lactobacillus plantarum [2]; concentration 0.128 %): +
Growth observed after recovering viable Lactobacillus plantarum (Lactobacillus plantarum [2]; concentration 0.255 %): +
Growth observed after recovering viable Lactobacillus plantarum (Lactobacillus plantarum [2]; concentration 0.510 %): −
Growth observed after recovering viable Lactobacillus plantarum (Lactobacillus plantarum [2]; concentration 1.021 %): −
Growth observed after recovering viable Lactobacillus plantarum (Lactobacillus plantarum [2]; concentration 2.042 %): −
Growth observed after recovering viable Lactobacillus plantarum (Lactobacillus plantarum [2]; concentration 4.084 %): −
Growth observed after recovering viable Lactobacillus plantarum (Lactobacillus plantarum [2]; concentration 8.167 %): −
concentration at which consistent growth was observed across all replicates (Lactobacillus plantarum [3]; 30 minutes contact time): ≤ 4.083%
Minimum concentration at which growth was observed (%) (Lactobacillus plantarum [3]; 30 minutes contact time): 8.167%
Minimum concentration at which growth was observed (%) (Lactobacillus plantarum [3]; 4 hours contact time): 0.510%
Minimum concentration at which growth was observed (%) (Lactobacillus plantarum [3]; 24 hours contact time): 0.255%
Growth observed after recovering viable Lactobacillus plantarum (Lactobacillus plantarum [3]; concentration 0.128 %, 24 hours): +
Growth observed after recovering viable Lactobacillus plantarum (Lactobacillus plantarum [3]; concentration 0.255 %, 4 hours): +
Growth observed after recovering viable Lactobacillus plantarum (Lactobacillus plantarum [3]; concentration 0.255 %, 24 hours): +
Growth observed after recovering viable Lactobacillus plantarum (Lactobacillus plantarum [3]; concentration 0.510 %, 4 hours): +
Growth observed after recovering viable Lactobacillus plantarum (Lactobacillus plantarum [3]; concentration 0.510 %, 24 hours): −
Growth observed after recovering viable Lactobacillus plantarum (Lactobacillus plantarum [3]; concentration 0.510 %, 24 hours, listed as copper gluconate): unable to survive
Growth observed after recovering viable Lactobacillus plantarum (Lactobacillus plantarum [3]; concentration 1.021 %, 4 hours): −
Growth observed after recovering viable Lactobacillus plantarum (Lactobacillus plantarum [3]; concentration 1.021 %, 4 hours, listed as copper gluconate): unable to survive
Growth observed after recovering viable Lactobacillus plantarum (Lactobacillus plantarum [3]; concentration 2.042 %, 30 minutes): +
Growth observed after recovering viable Lactobacillus plantarum (Lactobacillus plantarum [3]; concentration 4.084 %, 30 minutes): +
Growth observed after recovering viable Lactobacillus plantarum (Lactobacillus plantarum [3]; concentration 8.167 %, 30 minutes): − (4×) and + (2×)
Growth observed after recovering viable Lactobacillus plantarum (Lactobacillus plantarum [3]; concentration 8.167 %, 30 minutes, listed as copper gluconate): Growth was observed in two of three replicates

Zinc gluconate
Growth (Lactobacillus plantarum [1]; stock concentration 6.326 %, n = 3): Yes
Growth (Lactobacillus plantarum [1]; stock concentration 6.326 %, n = 3, listed as zinc gluconate): Growth of L. plantarum was observed
Growth of L. plantarum (Lactobacillus plantarum [2]; 24 hours contact time, at all concentrations tested (Table 6)): Growth was observed
Minimum concentration at which growth was observed (%) (Lactobacillus plantarum [2]; 24 hours contact time): 6.326%
Growth observed after recovering viable Lactobacillus plantarum (Lactobacillus plantarum [2]; concentration 0.049 %): +
Growth observed after recovering viable Lactobacillus plantarum (Lactobacillus plantarum [2]; concentration 0.099 %): +
Growth observed after recovering viable Lactobacillus plantarum (Lactobacillus plantarum [2]; concentration 0.198 %): +
Growth observed after recovering viable Lactobacillus plantarum (Lactobacillus plantarum [2]; concentration 0.395 %): +
Growth observed after recovering viable Lactobacillus plantarum (Lactobacillus plantarum [2]; concentration 0.791 %): +
Growth observed after recovering viable Lactobacillus plantarum (Lactobacillus plantarum [2]; concentration 1.582 %): +
Growth observed after recovering viable Lactobacillus plantarum (Lactobacillus plantarum [2]; concentration 3.163 %): +
Growth observed after recovering viable Lactobacillus plantarum (Lactobacillus plantarum [2]; concentration 6.326 %): +
Minimum concentration at which growth was observed (%) (Lactobacillus plantarum [3]; 30 minutes contact time): 6.326%
Minimum concentration at which growth was observed (%) (Lactobacillus plantarum [3]; 30 minutes contact time, listed as zinc gluconate): ≤ 6.326%
Minimum concentration at which growth was observed (%) (Lactobacillus plantarum [3]; 4 hours contact time): 6.326%
Minimum concentration at which growth was observed (%) (Lactobacillus plantarum [3]; 4 hours contact time, listed as zinc gluconate): ≤ 6.326%
Minimum concentration at which growth was observed (%) (Lactobacillus plantarum [3]; 24 hours contact time): 6.326%
Minimum concentration at which growth was observed (%) (Lactobacillus plantarum [3]; 24 hours contact time, listed as zinc gluconate): ≤ 6.326%
Growth observed after recovering viable Lactobacillus plantarum (Lactobacillus plantarum [3]; concentration 1.5815 %, 30 minutes): +
Growth observed after recovering viable Lactobacillus plantarum (Lactobacillus plantarum [3]; concentration 1.5815 %, 4 hours): +
Growth observed after recovering viable Lactobacillus plantarum (Lactobacillus plantarum [3]; concentration 1.5815 %, 24 hours): +
Growth observed after recovering viable Lactobacillus plantarum (Lactobacillus plantarum [3]; concentration 3.163 %, 30 minutes): +
Growth observed after recovering viable Lactobacillus plantarum (Lactobacillus plantarum [3]; concentration 3.163 %, 4 hours): +
Growth observed after recovering viable Lactobacillus plantarum (Lactobacillus plantarum [3]; concentration 3.163 %, 24 hours): +
Growth observed after recovering viable Lactobacillus plantarum (Lactobacillus plantarum [3]; concentration 6.326 %, 30 minutes): +
Growth observed after recovering viable Lactobacillus plantarum (Lactobacillus plantarum [3]; concentration 6.326 %, 4 hours): +
Growth observed after recovering viable Lactobacillus plantarum (Lactobacillus plantarum [3]; concentration 6.326 %, 24 hours): +
